The values below come from US8354387B2, “Methods and compositions for delivering siRNA into mammalian cells” (Centre National de la Recherche Scientifique, priority 2004, dated 2013).

Assay [1] relates to human fibroblasts (Hs68) or HeLa cells. The assay can be described thus: Delivery of pRL-SV40 luciferase plasmid with inhibitors of the endosomal pathway or at 4° C. The assay is classed as cell-based. On the procedure: FIG. 1: MPG-mediated gene delivery in the presence of inhibitors of the endosomal pathway. A/ MPG/DNA complexes formed at a charge ratio of 5/1 with 100 ng pRL-SV40 plasmid encoding the reporter gene luciferase were overlaid onto human fibroblasts (Hs68) in the presence of either bafilomycin A (Baf-A: 150 nM), cytochalasin B (Cy-B: 50 μg/ml) or chloroquine (Chi: 100 μM). After 48 hrs cell extracts were prepared and luciferase activity was measured and reported as a function of total protein (black). Similar experiments were performed using a lipid-based delivery system, Lipofectamine™, as a control (white). Experiments in the absence of inhibitors were also performed using an MPG peptide lacking a C-terminal cysteamide group (grey). B/ A 36mer fluorescein labelled oligonucleotide was complexed with MPG at a charge ratio of 5/1. Complexes were then overlaid onto cultured Hela cells in the presence of bafilomycin A (middle panel) or cytochalasin B (bottom panel) and cellular localization of the oligonucleotide was monitored by fluorescence microscopy on living cells 1 hr after transfection. A control experiment with free oligonucleotide is shown in the top panel.
Hs68, Cos-7 and HeLa cell lines were cultured in Dulbecco's Modified Eagle's Medium supplemented with 2 mM glutamine, 1% antibiotics (streptomycin 10 000 μg/ml, penicillin, 10,000 IU/ml) and 10% (w/v) fetal calf serum (FCS) at 37° C. in a humidified atmosphere containing 5% CO2 as described previously (18). For MPG or MPG^ΔNLS-mediated gene delivery, peptide carrier/DNA complexes were formed in DMEM or PBS (500 μl of DMEM containing 100 ng of DNA complexed with MPG at a charge ratio 5:1) and incubated for 30 min at 37° C. Cells grown to 60% confluence were then overlaid with these preformed complexes. […]
For cell cycle-dependent studies, Hs68 fibroblasts were synchronized by serum deprivation for 40 hrs, then restimulated to enter the cycle and grow into early G1 for 4 hrs by addition of fresh DMEM supplemented with 20% FCS, and incubated in the presence of MPG/DNA complexes as described above. Luciferase activity was monitored as described previously (19) and control transfection experiments were performed using Lipofectamine™. […]
A plasmid encoding the reporter gene luciferase, pRL-SV40, was associated with MPG carrier at a charge ratio of 5:1 (MPG/DNA) and overlaid onto cultured human fibroblasts (Hs68) or HeLa cells in the presence of either bafilomycin A (150 nM), chloroquine (100 μM) or cytochalasin B (50 μg/ml). Transfection efficiency was monitored 30 hrs after transfection and Lipofectamine™ was used as a standard control method for transfection. […]

Assay [2] has as its system 15PC3 cells or A549 cells (human bronchoalveolar carcinoma) tumors. The assay can be described thus: Tumour growth after intratumoral injection in Swiss nude mice. Conditions: 20 days after injection. It counts as in vivo. On the procedure: FIG. 8: Cyclin-B1 siRNA inhibits tumour growth. Mice were infected subcutaneously with 15PC3 cells (ATCC no CRL-1435). One week later, MPG/siRNA complexes were injected directly into the tumour, at different concentrations (1 μg, 5 μg, 10 μg, in 50 μl of PBS).
Cyclin B1 siRNA inhibits tumor growth: In vivo injections and tumors analysis. Five weeks old female Swiss nude nice were injected subcutaneously with 2×10^7 15PC3 cells or A549 cells (n^o ATCC CCL-185) (human bronchoalveolar carcinoma). When tumors reached a mean volume of 50 to 100 mm^3, (a week later), mice were injected intra-tumorally or sub-tumorally with 50 μl of PBS containing anti cyclin B1 siRNA (1, 5, 10 μg) or scrambled siRNA (50 μg) complexed with MPG or siRNA (50 μg). 50 μl of PBS was used as a control. Tumor volume was measured with calipers every two days. A second injection was performed after 10 days and tumor size was measured after 20 days.
As delivery of siRNA directed against cyclin B1 blocked proliferation of cancer cells, the role of siRNA/MPG formulation to block tumor growth in vivo. The effect of the cyclin B1 siRNA was investigated on tumor animal model (FIG. 8), using Swiss nude nice, injected subcutaneously with 2×10^7 15PC3 cells or A549 cells (human bronchoalveolar carcinoma). Different MPG/siRNA complexed were injected intratumorally and monitoring tumor volumes followed the effect of siRNA.

For another assay, the system named is mammalian cells. Conditions: single- and double-stranded oligonucleotides; cited from earlier work.
Assay [3] deals with single- and double-stranded oligonucleotides (DNA). Conditions: cited from earlier work.

On to “GALFLGFLGAAGSTMGAWSQPKKKRKV (carrier peptide) [MPG, bipartite amphipathic peptide derived from fusion peptide domain of HIV-1 gp41 and NLS of SV40 large T antigen]”, for which the “localization of fluorescently labelled oligonucleotide in presence of inhibitors” value in assay [1] (36mer fluorescein oligonucleotide, charge ratio 5/1, Hela cells, after one hour) is “localized to the nucleus and to cytoplasm of the cells”. In addition, the “increase of efficiency by chloroquine” value in assay [1] (chloroquine 100 μM, pRL-SV40) is 10%. Further, the “transfection efficiency in presence of bafilomycin A or cytochalasin B” value in assay [1] (pRL-SV40, charge ratio 5:1, bafilomycin A 150 nM, cytochalasin B 50 μg/ml) was “not affected”. Also, the “reduction of transfection efficiency at 4° C.” value in assay [1] (transfection performed at 4° C.) was 12 fold. The sequence further yielded a tumor size increase in assay [2] of 2.5 fold. Besides, in the assay on mammalian cells, the “time to deliver oligonucleotides into mammalian cells” value is less than 1 h. Further, the “affinity for single-stranded relative to double-stranded oligonucleotides” value in assay [3] is listed as “at least 2 fold”.
